{
  "source": "patent US20210315880A1",
  "about": "“METHODS OF TREATING VIRAL INFECTIONS USING INHIBITORS OF NUCLEOTIDE SYNTHESIS PATHWAYS” (priority 2020, published 2021)",
  "key": {"[1]": {"test_system": "solid malignancies", "conditions": "cited from earlier work; for recommended dose for phase II studies: 1-h i.v. infusion every 3 weeks; for maximum tolerable dose: i.v. infusion every 3 weeks"}, "[2]": {"test_system": "advanced lung cancer", "conditions": "weekly rapid iv injection, previously treated patients with advanced lung cancer; cited from earlier work"}, "[3]": {"test_system": "RNA virus", "assay": "Daily brequinar x 5 days in a subject infected with an RNA virus", "assay_type": "in vivo", "conditions": "at first peak in brequinar level, once per day for five days", "method": "The mechanism by which administration of a DHODH inhibitor according to a daily dosing regimen inhibits viral replication is illustrated below. […] Throughout the course of the dosing regimen, levels of intracellular pyrimidines, such as uridine, and viral replication are measured."}, "[4]": {"assay": "Adverse events in subjects receiving brequinar intravenously once a week", "conditions": "Infection"}, "[5]": {"conditions": "in vivo"}, "[6]": {"target": "DHODH (Homo sapiens, UniProt Q02127)", "sequence (Q02127 whole entry)": "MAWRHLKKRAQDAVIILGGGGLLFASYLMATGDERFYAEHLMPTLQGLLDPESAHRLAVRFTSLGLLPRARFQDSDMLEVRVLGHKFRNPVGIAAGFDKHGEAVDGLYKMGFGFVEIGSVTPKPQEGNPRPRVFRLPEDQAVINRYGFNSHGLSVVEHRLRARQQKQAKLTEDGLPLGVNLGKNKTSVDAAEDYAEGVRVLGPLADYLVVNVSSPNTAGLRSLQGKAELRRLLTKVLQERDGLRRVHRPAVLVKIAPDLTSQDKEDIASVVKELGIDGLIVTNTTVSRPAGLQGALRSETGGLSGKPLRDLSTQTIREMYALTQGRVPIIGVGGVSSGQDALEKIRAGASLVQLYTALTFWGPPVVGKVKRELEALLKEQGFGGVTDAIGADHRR"}, "[7]": {"conditions": "in vivo", "remark": "listed apart in the source"}, "[8]": {"test_system": "acute myeloid leukemia (AML)", "assay": "Effect of brequinar-containing composition on patient with AML", "assay_type": "in vivo, human"}, "[9]": {"test_system": "SARS-CoV-2", "assay_type": "cell-based"}, "[10]": {"test_system": "Vero E6 cells", "conditions": "remdesivir co-treated with brequinar"}},
  "note": "Where two headings read alike, the source gives them in different places.",
  "data": [
    {"smiles": "Cc1c(-c2ccc(-c3ccccc3F)cc2)nc2ccc(F)cc2c1C(=O)O", "note": "[Brequinar sodium]", "values": [
      {"measurement": "recommended dose for phase II studies", "setting": "[1]; good-risk patients", "result": "1,800 mg/m^2"},
      {"measurement": "maximum tolerable dose", "setting": "[1]; good-risk patients", "result": "2,250 mg/m^2"},
      {"measurement": "tumor response", "setting": "[1]; patient with papillary carcinoma of the thyroid", "result": "One mixed response"},
      {"measurement": "recommended dose for phase II studies", "setting": "[1]; poor-risk patients", "result": "1,200 mg/m^2"},
      {"measurement": "maximum tolerable dose", "setting": "[1]; poor-risk patients", "result": "1,500 mg/m^2"}
    ]},
    {"smiles": "NC(=O)c1[nH]nc([C@@H]2O[C@H](CO)[C@@H](O)[C@H]2O)c1O", "note": "[PYR, 5-[(2S,3R,4S,5R)-3,4-dihydroxy-5-(hydroxymethyl)oxolan-2-yl]-4-hydroxy-1H-pyrazole-3-carboxamide]", "values": [
      {"measurement": "therapeutic value", "setting": "[2]", "result": "has little therapeutic value as a single agent"}
    ]},
    {"smiles": "Cc1c(-c2ccc(-c3ccccc3F)cc2)nc2ccc(F)cc2c1C(=O)O", "note": "[brequinar, 6-fluoro-2-(2′-fluoro-1,1′ biphenyl-4-yl)-3-methyl-4-quinoline carboxylic acid]", "values": [
      {"measurement": "intracellular pyrimidine pool", "setting": "[3]", "result": "dramatic decrease in the intracellular pyrimidine pool"},
      {"measurement": "viral replication", "setting": "[3]", "result": "dramatic reduction in viral replication"},
      {"measurement": "No. of Patients", "setting": "[4]", "result": 7},
      {"measurement": "No. of Patients Experiencing the AE, 5 y Max Grade 1", "setting": "[4]", "result": 4},
      {"measurement": "No. of Patients Experiencing the AE, 5 y Max Grade 2", "setting": "[4]", "result": 3},
      {"measurement": "No. of Patients Experiencing the AE, 5 y Max Grade 3", "setting": "[4]", "result": 0},
      {"measurement": "No. of Patients Experiencing the AE, 5 y Max Grade 4", "setting": "[4]", "result": 0},
      {"measurement": "Percent", "setting": "[4]", "result": 3.3, "unit": "%"},
      {"measurement": "effect of repeated doses", "setting": "[5]", "result": "No cumulative effective of repeated doses"},
      {"measurement": "concentrations at which DHODH is almost completely inhibited", "setting": "[6]", "result": "> 1", "unit": "µM"},
      {"measurement": "oral versus IV formulations", "setting": "[7]", "result": "oral and IV formulations are equivalent"},
      {"measurement": "response", "setting": "[8]; first patient with AML (Example 12)", "result": "positive response as indicated by reduction in bone marrow blast count, improvement of extramedullary hematopoiesis, and shift to more differentiation in peripheral blasts"},
      {"measurement": "response", "setting": "[8]; patient with AML of Example 14", "result": "positive response as indicated by a trend towards differentiation of their peripheral blasts"},
      {"measurement": "response", "setting": "[8]; second patient with AML (Example 13)", "result": "positive response to the disease with a lowering of peripheral blasts and increase in absolute neutrophil count, along with greater differentiation of peripheral blasts"}
    ]},
    {"smiles": "CCC(CC)COC(=O)[C@H](C)N[P@](=O)(OC[C@H]1O[C@@](C#N)(c2ccc3c(N)ncnn23)[C@H](O)[C@@H]1O)Oc1ccccc1", "note": "[remdesivir]", "values": [
      {"measurement": "Min Data", "setting": "[9]; brequinar 0.000 μM", "result": "−11", "unit": "%"},
      {"measurement": "Min Data", "setting": "[9]; brequinar 0.078 μM", "result": "−1.9", "unit": "%"},
      {"measurement": "cytotoxicity of co-treatment", "setting": "[10]", "result": "No enhanced cytotoxicity"}
    ]}
  ]
}
